Source: ChEMBL document CHEMBL5543109, “Novel β-Hairpin Antimicrobial Peptide Containing the β-Turn Sequence of -NG- and the Tryptophan Zippers Facilitate Self-Assembly into Nanofibers, Exhibiting Excellent Antimicrobial Performance” (J Med Chem, 2024)
Values after ≈ are worked out from the molar mass of the structure shown.

Key:
[1] = test system: Staphylococcus epidermidis; assay: Bactericidal activity against Staphylococcus epidermidis ATCC 12228 incubated for 18 hrs by broth microdilution method; format: functional
Escherichia coli [2] = assay: Bactericidal activity against Escherichia coli ATCC 25922 incubated for 18 hrs by broth microdilution method; format: functional
[3] = test system: Staphylococcus epidermidis; assay: Antibacterial activity against Staphylococcus epidermidis ATCC 12228 incubated for 18 hrs by broth microdilution method; format: functional
Staphylococcus aureus [4] = assay: Bactericidal activity against Staphylococcus aureus ATCC 25923 incubated for 18 hrs by broth microdilution method; format: functional
Bacillus subtilis [5] = assay: Bactericidal activity against Bacillus subtilis ATCC 23857 incubated for 18 hrs by broth microdilution method; format: functional
Staphylococcus aureus [6] = assay: Antibacterial activity against Staphylococcus aureus at 2 times MIC preincubated for 1 hr with trypsin followed by enzyme inactivation and bacterial addition and measured after 18 hrs; format: functional; settings: time 19 hrs
Pseudomonas aeruginosa [7] = assay: Antibacterial activity against Pseudomonas aeruginosa ATCC 27853 incubated for 18 hrs by broth microdilution method; format: functional
Erythrocyte = assay: Hemolytic activity in mouse erythrocytes assessed as concentration required to cause 10% hemolysis incubated for 1 hr; format: toxicity, cell-based
Staphylococcus aureus [8] = assay: Antibacterial activity against Staphylococcus aureus at 2 times MIC preincubated for 1 hr with chymotrypsin followed by enzyme inactivation and bacterial addition and measured after 18 hrs; format: functional; settings: time 19 hrs
Bacillus subtilis [9] = assay: Antibacterial activity against Bacillus subtilis ATCC 23857 incubated for 18 hrs by broth microdilution method; format: functional
Escherichia coli [10] = assay: Antibacterial activity against Escherichia coli ATCC 25922 incubated for 18 hrs by broth microdilution method; format: functional
Klebsiella pneumoniae [11] = assay: Bactericidal activity against Klebsiella pneumoniae ATCC 700603 incubated for 18 hrs by broth microdilution method; format: functional
Staphylococcus aureus [12] = assay: Antibacterial activity against Staphylococcus aureus ATCC 25923 incubated for 18 hrs by broth microdilution method; format: functional
Klebsiella pneumoniae [13] = assay: Antibacterial activity against Klebsiella pneumoniae ATCC 700603 incubated for 18 hrs by broth microdilution method; format: functional
[14] = Retention time of the compound; format: physicochemical
Pseudomonas aeruginosa [15] = assay: Bactericidal activity against Pseudomonas aeruginosa ATCC 27853 incubated for 18 hrs by broth microdilution method; format: functional
[16] = Self-assembly property of compound in water assessed as beta-sheet content; format: physicochemical
[17] = Self-assembly property of compound in PBS assessed as beta-sheet content; format: physicochemical; settings: buffer
[18] = Self-assembly property of compound in 50% TFE assessed as beta-sheet content; format: physicochemical
[19] = Self-assembly property of compound in PBS assessed as beta-sheet nanofibers formation incubated for 1 hr by Thioflavin T based fluorescence spectrophotometer analysis; format: physicochemical; settings: buffer, dose 0.5-1.5 µM

SMILES | MBC [1] [µM] | MBC (Escherichia coli [2]) [µM] | MIC [3] [µM] | MBC (Staphylococcus aureus [4]) [µM] | MBC (Bacillus subtilis [5]) [µM] | Activity (Staphylococcus aureus [6]) [%] | MIC (Pseudomonas aeruginosa [7]) [µM] | MHC (Erythrocyte) [µM] | Activity (Staphylococcus aureus [8]) [%] | MIC (Bacillus subtilis [9]) [µM] | MIC (Escherichia coli [10]) [µM] | MBC (Klebsiella pneumoniae [11]) [µM] | MIC (Staphylococcus aureus [12]) [µM] | MIC (Klebsiella pneumoniae [13]) [µM] | Retention_time [14] [min] | MBC (Pseudomonas aeruginosa [15]) [µM] | Activity [16] [%] | Activity [17] [%] | Activity [18] [%] | Activity [19]
NCCCC[C@@H](N)C(=O)N[C@H](Cc1c[nH]c2ccccc12)C(=O)N[C@H](CCCCN)C(=O)N[C@H](Cc1c[nH]c2ccccc12)C(=O)N[C@H](CCCCN)C(=O)N1CCC[C@@H]1C(=O)N1CCC[C@H]1C(=O)N[C@H](CCCCN)C(=O)N[C@H](Cc1c[nH]c2ccccc12)C(=O)N[C@H](CCCCN)C(=O)N[C@H](Cc1c[nH]c2ccccc12)C(=O)N[C@H](CCCCN)C(N)=O | 8 (≈ 13.8 µg/mL) | 8 (≈ 13.8 µg/mL) | 4 (≈ 6.9 µg/mL) | 64 (≈ 110 µg/mL) | 8 (≈ 13.8 µg/mL) | 100 | 4 (≈ 6.9 µg/mL) | > 512 | 100 | 4 (≈ 6.9 µg/mL) | 8 (≈ 13.8 µg/mL) | 16 (≈ 27.6 µg/mL) | 32 (≈ 55.2 µg/mL) | 16 (≈ 27.6 µg/mL) | 11.03 | 32 (≈ 55.2 µg/mL) | – | – | – | –
NCCCC[C@@H](N)C(=O)N[C@H](Cc1c[nH]c2ccccc12)C(=O)N[C@H](CCCCN)C(=O)N[C@H](Cc1c[nH]c2ccccc12)C(=O)N[C@H](CCCCN)C(=O)N1CCC[C@@H]1C(=O)NCC(=O)N[C@H](CCCCN)C(=O)N[C@H](Cc1c[nH]c2ccccc12)C(=O)N[C@H](CCCCN)C(=O)N[C@H](Cc1c[nH]c2ccccc12)C(=O)N[C@H](CCCCN)C(N)=O | 16 (≈ 27 µg/mL) | 8 (≈ 13.5 µg/mL) | 4 (≈ 6.74 µg/mL) | 32 (≈ 53.9 µg/mL) | 8 (≈ 13.5 µg/mL) | 100 | 8 (≈ 13.5 µg/mL) | > 512 | 100 | 4 (≈ 6.74 µg/mL) | 8 (≈ 13.5 µg/mL) | 16 (≈ 27 µg/mL) | 16 (≈ 27 µg/mL) | 16 (≈ 27 µg/mL) | 11.539 | 32 (≈ 53.9 µg/mL) | 35 | 47 | 30.4 | –
NCCCC[C@@H](NC(=O)[C@H](N)Cc1c[nH]c2ccccc12)C(=O)N[C@H](Cc1c[nH]c2ccccc12)C(=O)N[C@H](CCCCN)C(=O)N[C@H](Cc1c[nH]c2ccccc12)C(=O)NCC(=O)NCC(=O)N[C@H](Cc1c[nH]c2ccccc12)C(=O)N[C@H](CCCCN)C(=O)N[C@H](Cc1c[nH]c2ccccc12)C(=O)N[C@H](CCCCN)C(=O)N[C@H](Cc1c[nH]c2ccccc12)C(N)=O | 4 (≈ 7.04 µg/mL) | 8 (≈ 14.1 µg/mL) | 4 (≈ 7.04 µg/mL) | 4 (≈ 7.04 µg/mL) | 8 (≈ 14.1 µg/mL) | 100 | 4 (≈ 7.04 µg/mL) | 66.3 | 100 | 2 (≈ 3.52 µg/mL) | 8 (≈ 14.1 µg/mL) | 8 (≈ 14.1 µg/mL) | 4 (≈ 7.04 µg/mL) | 8 (≈ 14.1 µg/mL) | 14.321 | 32 (≈ 56.4 µg/mL) | – | – | – | Not Active
NCCCC[C@@H](N)C(=O)N[C@H](Cc1c[nH]c2ccccc12)C(=O)N[C@H](CCCCN)C(=O)N[C@H](Cc1c[nH]c2ccccc12)C(=O)N[C@H](CCCCN)C(=O)N1CCC[C@H]1C(=O)NCC(=O)N[C@H](CCCCN)C(=O)N[C@H](Cc1c[nH]c2ccccc12)C(=O)N[C@H](CCCCN)C(=O)N[C@H](Cc1c[nH]c2ccccc12)C(=O)N[C@H](CCCCN)C(N)=O | 8 (≈ 13.5 µg/mL) | 16 (≈ 27 µg/mL) | 4 (≈ 6.74 µg/mL) | 32 (≈ 53.9 µg/mL) | 8 (≈ 13.5 µg/mL) | 100 | 64 (≈ 108 µg/mL) | > 512 | 100 | 2 (≈ 3.37 µg/mL) | 8 (≈ 13.5 µg/mL) | 64 (≈ 108 µg/mL) | 32 (≈ 53.9 µg/mL) | 32 (≈ 53.9 µg/mL) | 11.212 | 128 (≈ 216 µg/mL) | 84.3 | 80.2 | 39.2 | –
NCCCC[C@@H](N)C(=O)N[C@H](Cc1c[nH]c2ccccc12)C(=O)N[C@H](CCCCN)C(=O)N[C@H](Cc1c[nH]c2ccccc12)C(=O)N[C@H](CCCCN)C(=O)NCC(=O)NCC(=O)N[C@H](CCCCN)C(=O)N[C@H](Cc1c[nH]c2ccccc12)C(=O)N[C@H](CCCCN)C(=O)N[C@H](Cc1c[nH]c2ccccc12)C(=O)N[C@H](CCCCN)C(N)=O | 8 (≈ 13.2 µg/mL) | 8 (≈ 13.2 µg/mL) | 4 (≈ 6.58 µg/mL) | 32 (≈ 52.6 µg/mL) | 8 (≈ 13.2 µg/mL) | 100 | 64 (≈ 105 µg/mL) | > 512 | 100 | 2 (≈ 3.29 µg/mL) | 8 (≈ 13.2 µg/mL) | 64 (≈ 105 µg/mL) | 16 (≈ 26.3 µg/mL) | 16 (≈ 26.3 µg/mL) | 11.03 | 128 (≈ 211 µg/mL) | – | – | – | –
NCCCC[C@@H](NC(=O)[C@H](N)Cc1c[nH]c2ccccc12)C(=O)N[C@H](Cc1c[nH]c2ccccc12)C(=O)N[C@H](CCCCN)C(=O)N[C@H](Cc1c[nH]c2ccccc12)C(=O)N1CCC[C@@H]1C(=O)NCC(=O)N[C@H](Cc1c[nH]c2ccccc12)C(=O)N[C@H](CCCCN)C(=O)N[C@H](Cc1c[nH]c2ccccc12)C(=O)N[C@H](CCCCN)C(=O)N[C@H](Cc1c[nH]c2ccccc12)C(N)=O | 8 (≈ 14.4 µg/mL) | 4 (≈ 7.2 µg/mL) | 4 (≈ 7.2 µg/mL) | 8 (≈ 14.4 µg/mL) | 2 (≈ 3.6 µg/mL) | 100 | 4 (≈ 7.2 µg/mL) | 147.6 | 100 | 2 (≈ 3.6 µg/mL) | 4 (≈ 7.2 µg/mL) | 8 (≈ 14.4 µg/mL) | 4 (≈ 7.2 µg/mL) | 8 (≈ 14.4 µg/mL) | 14.321 | 32 (≈ 57.6 µg/mL) | 30.5 | 44.2 | 50 | –
NCCCC[C@@H](N)C(=O)N[C@H](Cc1c[nH]c2ccccc12)C(=O)N[C@H](CCCCN)C(=O)N[C@H](Cc1c[nH]c2ccccc12)C(=O)N[C@H](CCCCN)C(=O)N[C@@H](CC(N)=O)C(=O)NCC(=O)N[C@H](CCCCN)C(=O)N[C@H](Cc1c[nH]c2ccccc12)C(=O)N[C@H](CCCCN)C(=O)N[C@H](Cc1c[nH]c2ccccc12)C(=O)N[C@H](CCCCN)C(N)=O | 8 (≈ 13.6 µg/mL) | 8 (≈ 13.6 µg/mL) | 4 (≈ 6.81 µg/mL) | 64 (≈ 109 µg/mL) | 8 (≈ 13.6 µg/mL) | 100 | 32 (≈ 54.5 µg/mL) | > 512 | 100 | 2 (≈ 3.4 µg/mL) | 8 (≈ 13.6 µg/mL) | 128 (≈ 218 µg/mL) | 16 (≈ 27.2 µg/mL) | 64 (≈ 109 µg/mL) | 11.03 | 128 (≈ 218 µg/mL) | – | – | – | –
NCCCC[C@@H](NC(=O)[C@H](N)Cc1c[nH]c2ccccc12)C(=O)N[C@H](Cc1c[nH]c2ccccc12)C(=O)N[C@H](CCCCN)C(=O)N[C@H](Cc1c[nH]c2ccccc12)C(=O)N1CCC[C@@H]1C(=O)N1CCC[C@H]1C(=O)N[C@H](Cc1c[nH]c2ccccc12)C(=O)N[C@H](CCCCN)C(=O)N[C@H](Cc1c[nH]c2ccccc12)C(=O)N[C@H](CCCCN)C(=O)N[C@H](Cc1c[nH]c2ccccc12)C(N)=O | 8 (≈ 14.7 µg/mL) | 4 (≈ 7.36 µg/mL) | 4 (≈ 7.36 µg/mL) | 8 (≈ 14.7 µg/mL) | 2 (≈ 3.68 µg/mL) | 100 | 8 (≈ 14.7 µg/mL) | 243.5 | 100 | 2 (≈ 3.68 µg/mL) | 4 (≈ 7.36 µg/mL) | 16 (≈ 29.5 µg/mL) | 4 (≈ 7.36 µg/mL) | 8 (≈ 14.7 µg/mL) | 14.321 | 32 (≈ 58.9 µg/mL) | – | – | – | –
